From ChEMBL document CHEMBL1201862, “PubChem BioAssay data set” (2004)
Blank lines part the entries; values can stand above or below the compound they belong to. Active and inactive are the calls of the source.

Tests used:
Vero = Vero cell cytotoxicity, cytotoxicity control for flavivirus capping enzyme inhibitors (AID 588742); assay type: functional; conditions: Chlorocebus sabaeus
[1] = target: T1, Polyadenylate-binding protein 1 (Homo sapiens, UniProt P11940); test: PABP1 MLLE–PAM2 binding inhibitor potency, dose response, biochemical, fluorescence polarization, FITC-PAM2 peptide (AID 602259); assay type: functional; conditions: read-out: IC50_Mean
[2] = target: T1, Polyadenylate-binding protein 1; test: PABP1 MLLE–PAM2 interaction inhibitors, dose response, miRNA deadenylation inhibitor project, biochemical, fluorescence polarization, Cy5-PAM2 peptide, secondary (AID 602260); assay type: functional; conditions: read-out: IC50_Mean
[3] = target: ATP-dependent molecular chaperone HSP82 (Candida albicans (strain WO-1) (Yeast), UniProt C4YTQ8); test: loss of DOC-induced GRE-beta-galactosidase reporter signal, dose response, Hsp90 inhibitor project, S. cerevisiae, luminescence (AID 2400); assay type: functional, cell-based;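 note: beta-galactosidase luminescence from glucocorticoid response element reporter as proxy for Hsp90 function; inhibitor potency where signal loss means Hsp90 inhibition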
[4] = target: T2, Serine/threonine-protein phosphatase (Candida dubliniensis (strain CD36 / CBS 7987 / NCPF 3949 / NRRLY-17841) (Yeast), UniProt B9W6M3); test: calcineurin pathway inhibitors in yeast reporter, dose response, S. cerevisiae, CDRE-lacZ, luminescence, secondary (AID 2388); assay type: functional, cell-based;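 note: yeast reporter cells carrying a calcineurin-responsive lacZ construct stimulated with calcium chloride; luminescent beta-galactosidase reporter signal in whole cells rather than isolated phosphatase activity; potency for inhibition where a drop in reporter signal means calcineurin blockade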
T2 sequence (B9W6M3 whole entry): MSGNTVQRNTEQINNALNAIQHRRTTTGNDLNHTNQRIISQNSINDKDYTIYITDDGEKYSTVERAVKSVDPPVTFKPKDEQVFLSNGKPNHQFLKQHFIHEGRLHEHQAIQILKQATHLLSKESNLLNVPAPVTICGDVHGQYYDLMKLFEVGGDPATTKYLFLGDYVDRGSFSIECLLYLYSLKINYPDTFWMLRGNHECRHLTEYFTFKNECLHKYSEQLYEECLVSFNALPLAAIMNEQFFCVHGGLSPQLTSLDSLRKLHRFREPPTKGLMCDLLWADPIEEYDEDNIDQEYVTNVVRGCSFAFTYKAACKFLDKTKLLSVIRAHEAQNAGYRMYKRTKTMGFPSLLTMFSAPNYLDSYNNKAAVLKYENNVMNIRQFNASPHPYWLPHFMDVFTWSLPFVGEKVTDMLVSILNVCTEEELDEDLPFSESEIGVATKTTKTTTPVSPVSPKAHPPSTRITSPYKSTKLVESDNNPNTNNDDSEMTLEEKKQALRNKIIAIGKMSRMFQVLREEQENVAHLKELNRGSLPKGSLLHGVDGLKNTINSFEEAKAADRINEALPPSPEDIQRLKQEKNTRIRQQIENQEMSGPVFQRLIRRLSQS

[5] = NIH-3T3 fibroblast cytotoxicity, dose response, cytotoxicity control, cell-based, fluorescence, Alamar Blue, secondary assay (AID 2327); assay type: functional;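 note: NIH-3T3 mouse fibroblasts cultured with fluconazole at 8 µg/mL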
[6] = C. albicans growth with fluconazole, confirmation, fluorescence, retest (AID 2467); assay type: functional, cell-based
Protein Wnt-3a = Protein Wnt-3a (Mus musculus, UniProt P27467); test: Wnt3a-driven reporter signaling inhibition, dose response, selectivity assay for Gli-SUFU antagonist project, Wnt-LIGHT cells, luminescence (AID 651570); assay type: functional; conditions: read-out: IC50_Mean;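 note: Wnt-LIGHT reporter cells stimulated with conditioned medium from Wnt3a-producing cells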
[7] = target: T3, Rac GTPase-activating protein 1 (Homo sapiens, UniProt Q9H0H5); test: MgcRacGAP GTPase-activating activity inhibitors, confirmation, biochemical, ADP Hunter fluorescence, primary and confirmatory (AID 624330); assay type: functional
T3 sequence (Q9H0H5 whole entry): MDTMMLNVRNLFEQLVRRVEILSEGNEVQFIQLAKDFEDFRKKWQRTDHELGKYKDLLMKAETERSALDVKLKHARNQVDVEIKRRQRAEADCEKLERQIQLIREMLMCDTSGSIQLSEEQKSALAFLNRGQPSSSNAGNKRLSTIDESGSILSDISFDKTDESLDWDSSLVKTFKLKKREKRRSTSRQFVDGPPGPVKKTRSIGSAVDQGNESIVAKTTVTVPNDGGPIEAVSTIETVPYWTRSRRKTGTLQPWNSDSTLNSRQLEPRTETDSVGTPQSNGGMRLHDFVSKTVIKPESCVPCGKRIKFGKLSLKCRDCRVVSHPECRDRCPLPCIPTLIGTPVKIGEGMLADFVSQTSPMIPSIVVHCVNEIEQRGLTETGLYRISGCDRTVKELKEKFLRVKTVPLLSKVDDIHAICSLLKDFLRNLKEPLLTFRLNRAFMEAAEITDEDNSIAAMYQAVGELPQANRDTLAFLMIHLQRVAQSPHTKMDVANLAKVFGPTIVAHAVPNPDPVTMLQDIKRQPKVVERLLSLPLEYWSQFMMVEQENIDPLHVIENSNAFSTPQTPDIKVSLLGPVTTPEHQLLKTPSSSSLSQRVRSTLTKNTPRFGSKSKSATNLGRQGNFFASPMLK

[8] = target: Dual specificity tyrosine-phosphorylation-regulated kinase 1A (Rattus norvegicus, UniProt Q63470); assay type: biochemical, Homo sapiens
[9] = Luminescence Cell-Based Dose Retest to Confirm Inhibitors of Cancer Stem Cells. [Related pubchem assays (depositor defined):AID2717, AID2721]; assay type: functional; conditions: Homo sapiens
INS1 = test: beta cell apoptosis inhibitors, cytokine rescue, dose response, luminescence, retest (AID 449756); assay type: functional, cell-based; conditions: Rattus norvegicus;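 note: cell death triggered by IL-1 beta plus TNF-alpha plus IFN-gamma mixture; protective hits raise ATP signal compared with cytokine alone wells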
A-375 = test: MITF: Counter assay: A375 proliferation Measured in Cell-Based System Using Plate Reader - 2084-03_Inhibitor_Dose_DryPowder_Activity. [Related pubchem assays (depositor defined):AID488944]; assay type: functional; conditions: Homo sapiens
[10] = inhibitors of intracellular T. cruzi replication, confirmation, NIH3T3 host cells, beta-gal luminescence (AID 2044); assay type: functional, cell-based;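 note: intracellular parasites grown in NIH/3T3 mouse fibroblasts as host cells; luminescent beta-galactosidase reporter signal from transgenic T. cruzi replicating inside host cells; inhibitors lower the luminescence signal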
[11] = HepG2 cell cytotoxicity, dose response, cytotoxicity control for Shn3 inhibitor project, CellTiter-Glo, cherry-picked (AID 624134); assay type: functional, cell-based
[12] = cytotoxicity toward NIH3T3 fibroblasts, dose response, counter-screen, cell-based, ATP luminescence, mouse fibroblasts (AID 2010); assay type: functional;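 note: cells exposed to compound for about 90 hours before reading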
[13] = target: T4, Microphthalmia-associated transcription factor (Homo sapiens, UniProt O75030); test: TRPM1 promoter luciferase signal decrease, dose response, MITF inhibitor project, cell-based, SK-MEL-5, cherry-picked, set 3 (AID 493073); assay type: functional
T4 sequence (O75030 whole entry): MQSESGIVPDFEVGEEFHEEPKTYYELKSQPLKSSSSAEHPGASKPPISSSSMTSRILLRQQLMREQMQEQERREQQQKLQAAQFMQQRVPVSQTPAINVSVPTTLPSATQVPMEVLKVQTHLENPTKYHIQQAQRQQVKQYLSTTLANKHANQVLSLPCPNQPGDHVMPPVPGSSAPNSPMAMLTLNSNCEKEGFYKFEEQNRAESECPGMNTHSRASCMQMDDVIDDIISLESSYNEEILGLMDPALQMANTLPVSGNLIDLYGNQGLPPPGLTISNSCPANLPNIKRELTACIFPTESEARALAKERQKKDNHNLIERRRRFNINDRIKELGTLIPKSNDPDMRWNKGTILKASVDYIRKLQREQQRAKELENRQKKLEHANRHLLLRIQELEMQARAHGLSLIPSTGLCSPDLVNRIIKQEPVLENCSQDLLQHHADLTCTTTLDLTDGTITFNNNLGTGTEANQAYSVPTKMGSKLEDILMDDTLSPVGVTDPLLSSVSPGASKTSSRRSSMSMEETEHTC

[14] = control 3'UTR Renilla luciferase suppression, dose response, counter-screen for Shn3 inhibitor project, cell-based, Clone20-Shn3RL, cherry-picked (AID 624133); assay type: functional
[15] = Shn3 3'UTR reporter inhibitors, dose response, cell-based, Clone20 osteoblasts, firefly luciferase, cherry-picked (AID 624132); assay type: functional;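 note: firefly luciferase luminescence from reporter carrying the Shn3 3'UTR in osteoblasts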
Hexokinase-1 = target: T5, Hexokinase-1 (Homo sapiens, UniProt P19367); test: SAR analysis of small molecule inhibitors of hexokinase domain containing I (HKDC1) in the hexokinase 1 selectivity assay. [Related pubchem assays (depositor defined):AID493160, AID493190]; assay type: functional
T5 sequence (P19367 whole entry): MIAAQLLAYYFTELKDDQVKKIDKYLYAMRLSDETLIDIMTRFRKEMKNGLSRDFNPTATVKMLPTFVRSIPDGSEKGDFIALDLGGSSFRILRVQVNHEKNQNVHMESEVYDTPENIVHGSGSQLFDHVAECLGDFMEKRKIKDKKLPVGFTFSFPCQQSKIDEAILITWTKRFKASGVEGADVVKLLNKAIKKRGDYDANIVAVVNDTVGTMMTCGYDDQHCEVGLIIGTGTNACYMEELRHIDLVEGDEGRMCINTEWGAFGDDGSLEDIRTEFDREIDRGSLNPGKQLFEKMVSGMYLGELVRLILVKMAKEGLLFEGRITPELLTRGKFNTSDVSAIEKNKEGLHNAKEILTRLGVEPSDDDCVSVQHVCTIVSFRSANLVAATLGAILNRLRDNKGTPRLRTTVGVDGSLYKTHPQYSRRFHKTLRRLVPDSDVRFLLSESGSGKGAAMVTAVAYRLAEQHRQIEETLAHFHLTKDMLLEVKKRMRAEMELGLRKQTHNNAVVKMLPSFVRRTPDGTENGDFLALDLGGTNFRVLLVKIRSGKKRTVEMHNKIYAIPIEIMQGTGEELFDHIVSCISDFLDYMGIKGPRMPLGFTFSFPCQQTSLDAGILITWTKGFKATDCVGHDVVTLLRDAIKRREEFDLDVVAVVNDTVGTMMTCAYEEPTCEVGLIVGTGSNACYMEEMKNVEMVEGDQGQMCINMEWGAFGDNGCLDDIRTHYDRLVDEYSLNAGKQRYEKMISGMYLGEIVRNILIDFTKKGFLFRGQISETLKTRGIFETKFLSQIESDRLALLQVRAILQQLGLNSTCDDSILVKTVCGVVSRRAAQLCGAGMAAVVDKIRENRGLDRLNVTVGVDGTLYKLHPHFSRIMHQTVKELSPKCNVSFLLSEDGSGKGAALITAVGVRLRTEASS

Hexokinase HKDC1 = target: T6, Hexokinase HKDC1 (Homo sapiens, UniProt Q2TB90); test: SAR analysis of small molecule inhibitors of hexokinase domain containing I (HKDC1). [Related pubchem assays (depositor defined):AID493160, AID493190]; assay type: functional
T6 sequence (Q2TB90 whole entry): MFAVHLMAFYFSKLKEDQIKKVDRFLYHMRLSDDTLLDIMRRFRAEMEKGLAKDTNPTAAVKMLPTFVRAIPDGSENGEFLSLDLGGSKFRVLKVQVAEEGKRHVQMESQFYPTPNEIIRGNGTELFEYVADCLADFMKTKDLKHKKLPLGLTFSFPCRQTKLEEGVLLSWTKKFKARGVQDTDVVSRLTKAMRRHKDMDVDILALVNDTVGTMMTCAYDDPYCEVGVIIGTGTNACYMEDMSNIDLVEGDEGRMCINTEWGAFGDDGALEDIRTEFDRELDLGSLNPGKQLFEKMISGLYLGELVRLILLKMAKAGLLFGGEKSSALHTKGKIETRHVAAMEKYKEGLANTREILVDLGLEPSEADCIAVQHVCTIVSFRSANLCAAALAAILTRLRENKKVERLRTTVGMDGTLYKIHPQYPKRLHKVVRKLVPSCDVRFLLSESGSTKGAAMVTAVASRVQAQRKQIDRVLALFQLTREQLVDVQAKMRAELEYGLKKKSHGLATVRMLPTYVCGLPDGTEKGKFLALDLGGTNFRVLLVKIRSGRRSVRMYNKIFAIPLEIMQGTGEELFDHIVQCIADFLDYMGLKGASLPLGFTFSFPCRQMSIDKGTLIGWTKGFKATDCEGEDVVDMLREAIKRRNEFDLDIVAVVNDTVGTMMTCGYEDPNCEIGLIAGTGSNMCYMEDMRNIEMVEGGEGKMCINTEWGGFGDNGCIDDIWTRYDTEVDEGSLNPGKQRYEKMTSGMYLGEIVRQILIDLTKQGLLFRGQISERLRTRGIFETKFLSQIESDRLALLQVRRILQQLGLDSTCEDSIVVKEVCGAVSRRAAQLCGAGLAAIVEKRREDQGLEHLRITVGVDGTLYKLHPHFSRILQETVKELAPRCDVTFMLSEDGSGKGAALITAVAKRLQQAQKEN

Large T antigen = Large T antigen (Simian virus 40, UniProt P03070); assay type: functional, Betapolyomavirus macacae;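 note: Confirmatory-stage PubChem screen for compounds that inhibit SV40 T antigen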
Large T antigen, sequence (P03070 whole entry): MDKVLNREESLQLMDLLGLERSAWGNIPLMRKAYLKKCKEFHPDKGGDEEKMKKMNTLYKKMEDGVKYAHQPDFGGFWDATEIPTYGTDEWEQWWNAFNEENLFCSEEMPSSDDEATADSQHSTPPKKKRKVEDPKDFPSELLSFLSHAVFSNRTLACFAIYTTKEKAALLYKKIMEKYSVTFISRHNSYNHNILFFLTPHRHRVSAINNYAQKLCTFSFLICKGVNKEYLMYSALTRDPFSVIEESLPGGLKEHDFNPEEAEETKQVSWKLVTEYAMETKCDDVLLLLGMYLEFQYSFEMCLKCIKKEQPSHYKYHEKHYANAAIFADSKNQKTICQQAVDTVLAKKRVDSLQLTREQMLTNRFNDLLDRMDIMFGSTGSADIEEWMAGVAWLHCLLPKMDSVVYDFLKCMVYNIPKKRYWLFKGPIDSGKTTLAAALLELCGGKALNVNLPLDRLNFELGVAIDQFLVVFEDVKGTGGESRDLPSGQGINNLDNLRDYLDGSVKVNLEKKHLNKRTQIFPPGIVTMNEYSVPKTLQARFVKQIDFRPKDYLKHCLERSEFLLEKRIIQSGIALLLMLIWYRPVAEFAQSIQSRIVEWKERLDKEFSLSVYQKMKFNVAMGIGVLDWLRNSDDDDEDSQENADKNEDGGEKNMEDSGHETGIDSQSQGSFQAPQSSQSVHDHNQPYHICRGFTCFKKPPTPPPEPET

T1 sequence (P11940 whole entry): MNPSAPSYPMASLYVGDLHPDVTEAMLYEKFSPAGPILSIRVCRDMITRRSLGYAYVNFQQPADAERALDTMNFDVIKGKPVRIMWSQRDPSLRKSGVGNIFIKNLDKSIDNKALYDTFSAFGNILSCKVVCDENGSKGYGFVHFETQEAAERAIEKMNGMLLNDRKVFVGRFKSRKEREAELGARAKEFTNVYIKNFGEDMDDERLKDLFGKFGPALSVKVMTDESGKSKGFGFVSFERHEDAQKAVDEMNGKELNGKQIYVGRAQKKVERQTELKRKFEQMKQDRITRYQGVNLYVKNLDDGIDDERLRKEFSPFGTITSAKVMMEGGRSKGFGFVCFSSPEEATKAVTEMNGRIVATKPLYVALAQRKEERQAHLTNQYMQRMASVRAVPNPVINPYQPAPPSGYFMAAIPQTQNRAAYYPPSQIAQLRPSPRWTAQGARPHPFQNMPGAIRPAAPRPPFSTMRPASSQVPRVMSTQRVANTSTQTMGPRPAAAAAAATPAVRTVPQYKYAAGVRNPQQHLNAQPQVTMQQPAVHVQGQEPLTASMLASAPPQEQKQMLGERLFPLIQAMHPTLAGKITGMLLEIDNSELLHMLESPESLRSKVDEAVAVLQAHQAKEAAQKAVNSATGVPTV
ATP-dependent molecular chaperone HSP82, sequence (C4YTQ8 whole entry): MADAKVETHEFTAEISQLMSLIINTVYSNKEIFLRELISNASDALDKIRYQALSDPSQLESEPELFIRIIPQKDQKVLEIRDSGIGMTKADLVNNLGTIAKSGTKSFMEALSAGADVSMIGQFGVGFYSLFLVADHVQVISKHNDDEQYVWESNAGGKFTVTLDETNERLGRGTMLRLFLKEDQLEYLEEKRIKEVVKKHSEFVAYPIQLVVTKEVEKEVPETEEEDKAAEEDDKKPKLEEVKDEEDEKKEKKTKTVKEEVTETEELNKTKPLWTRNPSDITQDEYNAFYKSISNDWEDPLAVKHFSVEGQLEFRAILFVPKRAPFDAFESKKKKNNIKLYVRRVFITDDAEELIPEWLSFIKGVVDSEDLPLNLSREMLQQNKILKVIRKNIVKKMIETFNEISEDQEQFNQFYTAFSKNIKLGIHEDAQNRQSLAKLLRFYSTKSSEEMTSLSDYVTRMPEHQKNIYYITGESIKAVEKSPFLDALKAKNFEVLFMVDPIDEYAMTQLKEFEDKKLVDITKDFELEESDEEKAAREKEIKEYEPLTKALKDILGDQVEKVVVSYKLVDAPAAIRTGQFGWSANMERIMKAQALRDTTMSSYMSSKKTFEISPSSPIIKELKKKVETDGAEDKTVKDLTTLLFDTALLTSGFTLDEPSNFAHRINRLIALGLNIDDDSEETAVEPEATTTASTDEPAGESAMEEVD
Protein Wnt-3a, sequence (P27467 whole entry): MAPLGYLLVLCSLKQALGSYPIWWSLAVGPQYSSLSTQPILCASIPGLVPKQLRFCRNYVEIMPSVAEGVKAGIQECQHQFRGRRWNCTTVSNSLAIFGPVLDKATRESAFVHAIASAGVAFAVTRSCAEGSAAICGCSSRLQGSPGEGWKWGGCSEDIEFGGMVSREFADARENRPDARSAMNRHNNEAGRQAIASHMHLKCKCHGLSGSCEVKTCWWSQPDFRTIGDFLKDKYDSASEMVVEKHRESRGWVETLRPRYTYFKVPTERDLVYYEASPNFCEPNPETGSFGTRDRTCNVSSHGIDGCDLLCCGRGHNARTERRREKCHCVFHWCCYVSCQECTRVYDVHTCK

Structure (SMILES): COC/C=C/C1=CC2=CC(=O)C(C)(OC(=O)c3cnc4ccccc4n3)C(=O)C2=CN1Cc1ccc(OC)cc1 (configuration not stated)
CC50 (Vero): 39.2 µM (active)

IC50 [1]: > 66 µM (inactive) | IC50 [2]: > 66 µM (inactive)
Structure (SMILES): O=C(Nc1cccs1)Nc1c(F)c(F)c(F)c(F)c1F

Structure (SMILES): CCc1ccccc1N=C(S)N=Nc1c(O)n(C)c2ccc(S(=O)(=O)N3CCOCC3)cc12
EC50 [3]: 40.9 µM (active) | EC50 [4]: > 180 µM (inactive) | EC50 [5]: > 150 µM (inconclusive) | EC50 [6]: > 38 µM (not active) | IC50 (Protein Wnt-3a): 13.3 µM (active)

IC50 [7]: 128 µM (active) | AC50 [8]: 16.6 µM (active)
Structure (SMILES): Nc1cc2c([N+](=O)[O-])cccc2o1

Structure (SMILES): O=S(=O)(c1ccc(Cl)cc1)N1CCN(Cc2ccc(O)c3ncccc23)CC1
AC50 [9]: 5.13 µM (active) | AC50 (INS1): 2.42 µM (active) | AC50 (A-375): 40.6 µM (active) | EC50 [10]: 1.37 µM (active) | AC50 [11]: 43.9 µM (active) | EC50 [5]: 16.6 µM (active) | EC50 [6]: 2.53 µM (active) | EC50 [12]: > 30 µM (not active) | AC50 [13]: 4.37 µM (active) | AC50 [14]: 16.4 µM (active) | AC50 [15]: 3.01 µM (active)

IC50 (Hexokinase-1): > 80 µM (inactive) | IC50 (Hexokinase HKDC1): > 80 µM (inactive)
Structure (SMILES): O=C(Nc1cccc(C(=O)Nc2cccc(C(F)(F)F)c2)c1)c1ccncc1

IC50 (Hexokinase-1): > 80 µM (inactive) | IC50 (Hexokinase HKDC1): > 80 µM (inactive)
Structure (SMILES): COc1ccccc1/C=C/c1nc2ccccc2c(=O)n1Cc1ccccc1

IC50 (Hexokinase-1): > 80 µM (inactive) | IC50 (Hexokinase HKDC1): > 80 µM (inactive)
Structure (SMILES): O=C(Nc1nnc(SCc2ccc(Cl)cc2)s1)c1ccc2ncsc2c1

IC50 [1]: > 66 µM (inactive) | IC50 [2]: > 66 µM (inactive)
Structure (SMILES): Cc1ccc(NC(=O)CSC(N)=O)cc1Cl

AC50 [8]: 10.9 µM (active) | IC50 (Large T antigen): 18.9 µM (active)
Structure (SMILES): O=C(O)/C=C/c1ccc(O)cc1 [COUMARIC ACID]

AC50 [8]: 12.7 µM (active)
Structure (SMILES): O=c1cc(-c2ccc(O)c(O)c2)oc2cc(O[C@@H]3O[C@H](CO)[C@@H](O)[C@H](O)[C@H]3O)cc(O)c12 [GALUTEOLIN]
